Experiment: xn = mol fraction of the nth substance listed
Conditions: 100 kPa, Liquid; for speed of sound: Frequency=3 MHz, Sing-around technique in a fixed-path interferometer; for mass density: Vibrating tube method

COCCO [2-methoxyethan-1-ol] + CCCC[n+]1ccn(C)c1.O=S(=O)([N-]S(=O)(=O)C(F)(F)F)C(F)(F)F
Conditions | mass density, 298.15 K [kg/m3] | mass density, 303.15 K [kg/m3] | mass density, 308.15 K [kg/m3] | speed of sound, 298.15 K [m/s] | speed of sound, 303.15 K [m/s] | speed of sound, 308.15 K [m/s]
x2 = 0 | 960.31 | 955.71 | 951.08 | 1341.8 | 1324.1 | 1307.3
x2 = 0.0966 | 1098.07 | 1093.42 | 1088.78 | 1301.4 | 1285.2 | 1269.8
x2 = 0.1943 | 1188.97 | 1184.24 | 1179.32 | 1279.7 | 1264.7 | 1250.1
x2 = 0.2887 | 1250.58 | 1245.82 | 1240.86 | 1266 | 1251.7 | 1237.7
x2 = 0.3979 | 1302.72 | 1298.03 | 1292.99 | 1253.5 | 1240.4 | 1227.8
x2 = 0.4792 | 1332.79 | 1328.12 | 1323.11 | 1246.7 | 1234.1 | 1221.7
x2 = 0.5943 | 1365.91 | 1361.32 | 1356.31 | 1239.9 | 1227.6 | 1216.1
x2 = 0.6753 | 1384.52 | 1379.92 | 1374.96 | 1236.6 | 1224.9 | 1213.3
x2 = 0.8101 | 1409.81 | 1405.23 | 1400.24 | 1232.5 | 1221.2 | 1209.9
x2 = 0.8849 | 1421.49 | 1416.91 | 1411.97 | 1230.2 | 1219 | 1208.2
